Measured values reported in ChEMBL document CHEMBL1151096, “7-aminoalkyl-2-amino-1,2,3,4-tetrahydro-2-naphthoic acids as inhibitors of tryptophan uptake” (Bioorg Med Chem Lett, 1992).

system: WiDr; test: Compound was tested for inhibition of 14C-Tryptophan uptake in WiDr human adenocarcinoma cells and the effect was determined at 0-100 uM concentration; assay type: functional, cell-based

SMILES	Ki
CCCNc1ccc2c(c1)CC(N)(C(=O)O)CC2 (stereo not drawn)	1700 nM
Nc1ccc2c(c1)CC(N)(C(=O)O)CC2 (stereo not drawn)	34000 nM
CN(C)c1ccc2c(c1)CC(N)(C(=O)O)CC2 (stereo not drawn)	1400 nM
NC1(C(=O)O)CCc2ccccc2C1 (stereo not drawn)	37000 nM
NC1(C(=O)O)CCc2ccc(N(CCO)CCO)cc2C1 (stereo not drawn)	1400 nM
CC(C)Nc1ccc2c(c1)CC(N)(C(=O)O)CC2 (stereo not drawn)	600 nM
CCCN(CCC)c1ccc2c(c1)CC(N)(C(=O)O)CC2 (stereo not drawn)	7400 nM
NC1(C(=O)O)CCc2ccc(N(CCCl)CCCl)cc2C1 (stereo not drawn)	800 nM
